Results as given in US6762164B2, “Use of 3-position cyclosporin derivatives for hair growth” (LG Household & Health Care Ltd., priority 2001, dated 2004).

system: Female C57BL/6 mice; test: Test for hair growth promoting effect: hair regrowth on shaved backs of mice; type: in vivo; conditions: shaved back, 100 μl (conc. 0.1% w/v) applied once a day for 30 days, visual approach
Experimental: Female C57BL/6 mice of ages 6 to 7 weeks were utilized. After removing hairs on the middle of the back with an electric shaver, the mice were weighed and randomly assigned to the test groups with an even distribution of weights. The mice were given one day for adaptation. From the next day, mice were applied once a day on their backs with cyclosporin A and the cyclosporin A derivatives (Compounds 1 to 7) prepared by HPLC in Example 1 in amounts of 100 μl (conc. 0.1% w/v) for 30 days. The results were determined by visual approach, in terms of degrees of hair regrowth. With respect to respective hair-removed areas, rates of new hair growth were examined and compared.

Row | Substance | Area rate of hair regrowth (%)
1 | [D-2-(methylamino)hexa-4-ynoyl^3] cyclosporin A [Compound 3] | 95
2 | [D-2-(methylamino)pent-4-ynoyl^3] cyclosporin A [Compound 4] | 96
3 | [D-2-(methylthio)-Sar^3] cyclosporin A [Compound 5] | 93
4 | [N-methyl-D-Abu3] cyclosporin A [Compound 1] | 95
5 | [N-methyl-D-Nva^3] cyclosporin A [Compound 2] | 91
6 | [N-methyl-D-Ser^3] cyclosporin A [Compound 7] | 90
7 | [N-methyl-O-propenyl-D-Ser^3] cyclosporin A [Compound 6] | 94
8 | cyclosporin A [reference compound] | 91
